Test results taken from patent US5843339A, “Phosphites and their production and use” (Sumitomo Chemical Company, Limited, priority 1995, dated 1998).

Experiments:
[1] = Heat stability test of linear low-density polyethylene: processing stability (gel build-up time on kneading); details: 0.1 parts test compound per 100 parts LLDPE + 0.1 parts hydrotalcite; pellets extruded at 250° C., kneaded under nitrogen at 240° C., 100 rpm, laboplasto mill; time to maximum torque
Experimental: Heat stability test of linear low-density polyethylene
Using a 30 mm .phi. mono axial extruder, the above formulation was extruded into pellets at 250° C. The resultant pellets were kneaded under a nitrogen atmosphere at 240° C., 100 rpm, using a laboplasto mill, and the time required for a torque value due to crosslinking to reach a maximum value (gel build-up time, minute) was measured. The results are shown in Table 1 as "processing stability".
The longer the gel build-up time, the more crosslinking on kneading is inhibited and the better the processing stability becomes.

[2] = Hydrolysis resistance: same gel build-up test with test compound stored in a thermo-hygrostat; type: physicochemical; details: test compound allowed to stand in thermo-hygrostat (40° C., 80%) for 7 days, then same test as processing stability
Experimental: Using a test compound which was allowed to stand in a thermo-hygrostat (40° C., 80%) for 7 days, the same test was conducted and the hydrolytic stability of the compound was evaluated. The results are shown in Table 1 as "hydrolysis resistance".
The processing stability of the hydrolyzed compound is deteriorated. Therefore, the better the processing stability after treatment, the better the hydrolysis resistance becomes.

[3] = Dispersion properties: visual transparency of press-molded sheet; type: physicochemical; set-up: key: .circleincircle.: Good; .largecircle.: Slightly good; Δ: Slightly opaque; X: Opaque; details: pellets press-molded at 250° C., sheet of 1 mm thickness
Experimental: The resultant pellets were press-molded at 250° C. to obtain a sheet having a thickness of 1 mm, and transparency of this sheet was visually evaluated. The results are shown in Table 1 as "dispersion properties".
The better the transparency, the better the dispersion properties in the polymer become.
In Table 1, dispersion properties are indicated according to the following criteria.

SMILES: Cc1cc2c(c(C(C)(C)C)c1)OP(OCCOC(=O)CCc1cc(C)c(O)c(C(C)(C)C)c1)Oc1c(cc(C)cc1C(C)(C)C)C2 [Compound P-3, 2-[3-(3-t-butyl-4-hydroxy-5-methyphenyl)propionyloxy]ethyl 2,2'-methylenebis(6-t-butyl-4-methylphenyl)phosphite]
- Processing stability (gel build-up time) [1]: 16 min
- Hydrolysis resistance (gel build-up time after treatment of the test compound) [2]: 16 min
- Dispersion properties (transparency of sheet, visually evaluated) [3]: .largecircle.

SMILES: Cc1cc(CCC(=O)OCCOp2oc3c(C(C)(C)C)cc(C(C)(C)C)cc3c3cc(C(C)(C)C)cc(C(C)(C)C)c3o2)cc(C(C)(C)C)c1O [KA-1, 3-(3-t-butyl-4-hydroxy-5-methylphenyl)propionic acid 2-[(2,4,8,10-tetra-t-butyldibenzo[d,f][1,3,2]dioxaphosphepin-6-yl)oxy]ethyl]
- Processing stability (gel build-up time) [1]: 21 min
- Hydrolysis resistance (gel build-up time after treatment of the test compound) [2]: 21 min
- Dispersion properties (transparency of sheet, visually evaluated) [3]: .circleincircle.

SMILES: CC(C)(C)c1ccc(OP(Oc2ccc(C(C)(C)C)cc2C(C)(C)C)Oc2ccc(C(C)(C)C)cc2C(C)(C)C)c(C(C)(C)C)c1 [Compound P-2, tris(2,4-di-t-butylphenyl)phosphite]
- Processing stability (gel build-up time) [1]: 7 min
- Hydrolysis resistance (gel build-up time after treatment of the test compound) [2]: 4 min
- Dispersion properties (transparency of sheet, visually evaluated) [3]: X

SMILES: CC(C)(C)c1ccc(OP2OCC3(CO2)COP(Oc2ccc(C(C)(C)C)cc2C(C)(C)C)OC3)c(C(C)(C)C)c1 (stereo not drawn) [Compound P-1, bis(2,4-di-t-butylphenyl)pentaerythritol diphosphite]
- Processing stability (gel build-up time) [1]: 7 min
- Hydrolysis resistance (gel build-up time after treatment of the test compound) [2]: 7 min
- Dispersion properties (transparency of sheet, visually evaluated) [3]: X

SMILES: Cc1cc(Cc2cc(C)cc(C(C)(C)C)c2OP2Oc3c(cc(C)cc3C(C)(C)C)Cc3cc(C)cc(C(C)(C)C)c3O2)c(O)c(C(C)(C)C)c1 [Compound P-4, 2-[2-(4,8-di-t-butyl-2,10-dimethyl-12H-dibenzo[d,g][1,3,2]dioxaphosphosin-6-yl)oxy-3-t-butyl-5-methylbenzyl]-6-t-butyl-4-methylphenol]
- Processing stability (gel build-up time) [1]: 15 min
- Hydrolysis resistance (gel build-up time after treatment of the test compound) [2]: 15 min
- Dispersion properties (transparency of sheet, visually evaluated) [3]: .largecircle.
